Reference: patent publication US20170360912A1, “CHITOSAN-BASED HYDROGEL AND APPLICATIONS THEREOF” (priority 2014, published 2017)

Columns and labels:
[1] = Measurement of pH and osmolality (Example 2); type: physicochemical; conditions: FIG. 8 panels A-C
Description: After 24 hours of gelation at 37° C., each hydrogel was pressed and filtered in order to recover entrapped solution. The pH of the extracted liquids was measured at room temperature using a pH meter (UltraBasic pH-meter, Denver Instrument). The impact of GA concentration of gels prepared with culture medium (as detailed in Section 2.2.4) on the final osmolality of hydrogels was measured using an osmometer (Advanced® Micro Osmometer, Model 3300, Advanced Instruments Inc.).

[2] = tested on: endothelial-derived cells (EA.hy 926); conditions: SHC 0.1M; cited from earlier work
[3] = BGP pKa,2 at 25° C.; cited from earlier work
[4] = Doxycycline denaturation on mixing, spectrometry; type: physicochemical
Excerpt: Addition of an anti-oxidant was however required for long term stability.

Row | SMILES | slope of osmolality versus gelling agent concentration [1] | damage on endothelial-derived cells [2] | pKa [3] | drug stability on direct addition in the CH or GA solution [4] | drug stability on addition in the CH-GA solution ([4]; room temperature)
1 | O=C([O-])O.[Na+] [SHC, Sodium hydrogen carbonate] | 1475 | no damage | 6.35 |  | 
2 | C[C@H]1c2cccc(O)c2C(=O)C2=C(O)[C@]3(O)C(=O)C(C(N)=O)=C(O)[C@@H](N(C)C)[C@@H]3[C@@H](O)[C@@H]21 [doxycycline] |  |  |  | drug denaturation | avoid drug denaturation
3 | O.O.O.O.O.O=P([O-])([O-])OC(CO)CO.[Na+].[Na+] [BGP, β-Glycerol phosphate disodium salt pentahydrate, reference compound] | 1789 |  | 6.65 |  | 
